This note sets out measurements from BindingDB's records for doi:10.1021/jm051187d (Unimore, 2006).

By Ki is commonly meant a dissociation constant, usually derived from enzyme kinetics or from competition with a known ligand.

The target in the assay is Thymidylate synthase (Escherichia coli (strain K12), UniProt P0A884). Description: Thymidylate Synthase (TS) Assay. On the procedure: TS was assayed spectrophotometrically in the reaction buffer solution containing (6R, 6S)-5, 10-CH2H4folate. The reaction was initiated by the addition of an amount of enzyme yielding a change in absorbance at 340 nm of 0.016/min in the absence of inhibitor. Ki values were obtained from the linear least-squares fit of the residual activity as a function of inhibitor concentration, using suitable equations for competitive inhibition.
Chain of Thymidylate synthase (P0A884 whole entry): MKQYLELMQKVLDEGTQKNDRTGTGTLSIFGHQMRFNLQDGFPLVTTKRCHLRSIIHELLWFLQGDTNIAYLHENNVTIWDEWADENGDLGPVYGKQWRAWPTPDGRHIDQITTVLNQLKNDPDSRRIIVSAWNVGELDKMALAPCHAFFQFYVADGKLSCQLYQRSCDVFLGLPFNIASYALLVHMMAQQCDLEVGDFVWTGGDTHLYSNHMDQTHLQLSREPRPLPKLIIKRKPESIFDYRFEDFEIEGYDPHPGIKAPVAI

Take `O=C1OC(c2cc(Br)c(O)c(Br)c2)(c2cc(Br)c(O)c(Br)c2)c2cccc3cccc1c23` [4,4-bis(3,5-dibromo-4-hydroxyphenyl)-3-oxatricyclo[7.3.1.0^{5,13}]trideca-1(12),5,7,9(13),10-pentaen-2-one]: the Ki is more than 11 mM.
